Reference: paper PMC12207370, “Macrocyclic Peptide Probes for Immunomodulatory Protein CD59: Potent Modulators of Bacterial Toxin Activity and Antibody‐Dependent Cytotoxicity” (Angewandte Chemie (International Ed. in English), 2025)
Where two headings read alike, the source gives them in different places. Peptide text beside a SMILES is read from it.

Experiments:
CD59 = target: T1, CD59 (Homo sapiens, UniProt P13987); assay: SPR (Biacore S200) binding to immobilised biotinylated CD59
T1 construct: Recombinant soluble human CD59 with an additional C-terminal cysteine residue
T1 sequence (P13987 26-102 limits assumed): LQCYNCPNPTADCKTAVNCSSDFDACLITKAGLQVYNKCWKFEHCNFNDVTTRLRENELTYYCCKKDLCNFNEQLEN
From the text: To identify which of these peptides bound CD59 most tightly, we used a Biacore S200 surface plasmon resonance (SPR) platform to investigate CD59 affinity (Figure 2b), using a known protein binding partner of CD59 (rILYd4) as a benchmark. Four 13‐mer macrocyclic peptides and one 14‐mer macrocyclic peptide were identified with a dissociation constant (K D) lower than that of rILYd4. Considering their fourfold lower molecular weight, these peptides bind with up to 19‐fold greater efficiency compared to rILYd4 (Figure 2b).
Equipment: SPR analysis was performed on a Cytiva Biacore S200. All buffers were prepared using ultra-pure water from a Millipore Elix Q-Gard purification system. Solutions and buffers were filtered with a 0.22 μm filter and degassed prior to use. The assays were performed on Series S streptavidin (SA) sensor chip (Cytiva). PBS-P+ buffer 10X (0.2 M phosphate buffer with 27 mM KCl, 1.37 M NaCl and 0.5% Surfactant P20 (Tween 20)) was used for the preparation of the assay running buffer (PBS-P+ 1X).
Immobilisation of CD59-biotin: Biotinylated CD59 was immobilised on the surface of a SA chip by non-covalent capture (biotin streptavidin interaction) as per the manufacturer’s instructions. The system was initially primed with running buffer and normalised using BIAnormalizing solution (70% (w/w) glycerol) (Cytiva). Before immobilising the protein, the surface was conditioned with three consecutive one-minute injections of 1 M NaCl in 50 mM NaOH. Biotinylated CD59 (0.5 µg/mL in running buffer) was flowed over the protein (active) channel for different contact times to achieve different immobilisation levels (600–1200 RU). After each protein injection, the needle and injection loop were washed using 50% isopropanol in 1 M NaCl and 50 mM NaOH. A reference channel was prepared by similar treatment; however, running buffer alone rather than CD59-biotin in running buffer was flowed over the chip the same way.
Interaction analysis: Multicycle kinetic and affinity approach was used for the analysis of peptides interactions with CD59. Two-fold serial dilutions of each peptide were prepared in running buffer and were flowed over both the ligand and reference channel using a flow rate (30 μL/min) at 25 °C. A zero concentration was added to each analyte series and three cycles of buffer were run between analytes to restore the baseline. The obtained sensorgrams were analysed using the embedded Biacore S200 Evaluation software. The data were normalised by subtracting RU values of the reference channel and zero concentration of the analyte series. Kinetic rate constants (kon and koff) were determined by fitting the normalised data using the built-in Kinetic analysis model (non-linear regression with a 1:1 Langmuir binding model), KD values were then calculated from the two rate constants ([…]). The KD values were determined again by fitting the normalised data using the built-in Affinity analysis model (1:1 Langmuir binding model).

biotinylated CD59 = target: T2, biotinylated CD59 (Homo sapiens, UniProt P13987); assay: mRNA-display cyclic peptide screen against CD59-biotin, NGS abundance after 6th selection round
T2 construct: Recombinant soluble human CD59 with an additional C-terminal cysteine residue
T2 sequence (P13987 26-102 limits assumed): T1 sequence (P13987 26-102 limits assumed)
Method in brief: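 Peptide–mRNA fusions were made by in vitro translation with a customised PURE express kit. The kit lacked release factor 1 and methionine and was supplemented with […] initiator tRNA carrying N-chloroacetyl-d-tyrosine. Thioether macrocycles were formed, then enriched and amplified over iterative rounds on CD59-biotin immobilised on streptavidin beads. NGS read counts per sequence were recorded after the 6th selection round.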

[1] = SPR, immobilized CD59, average of three technical replicates ± SEM, read-out: KD (nM) ± SEM
[2] = Ala scan of CP-06, SPR, n = 1, read-out: KD

With `CC(C)[C@@H]1NC(=O)[C@H](Cc2ccccc2)NC(=O)[C@@H](Cc2ccc(O)cc2)NC(=O)CSC[C@@H](C(N)=O)NC(=O)CNC(=O)[C@H](CCCNC(=N)N)NC(=O)[C@H]([C@@H](C)O)NC(=O)[C@H](Cc2c[nH]cn2)NC(=O)[C@H](CC(=O)O)NC(=O)[C@H](CCCNC(=N)N)NC(=O)[C@H](CC(N)=O)NC(=O)CNC(=O)[C@H]([C@@H](C)O)NC1=O` [CP-02] (HELM PEPTIDE1{[O=C(C[*:3])[*:2]].[dY].F.V.T.G.N.R.D.H.T.R.G.C.[am]}$PEPTIDE1,PEPTIDE1,1:R3-14:R3$$$V2.0) the Kd (CD59; [1]) was 15.3 ± 0.2 nM.

For `CC[C@H](C)[C@@H]1NC(=O)[C@H](CCC(N)=O)NC(=O)[C@H](CCCNC(=N)N)NC(=O)[C@H](CC(N)=O)NC(=O)CNC(=O)[C@H](Cc2c[nH]c3ccccc23)NC(=O)[C@H](C)NC(=O)[C@H](CO)NC(=O)[C@@H](Cc2ccc(O)cc2)NC(=O)CSC[C@@H](C(N)=O)NC(=O)[C@H](Cc2ccc(O)cc2)NC(=O)[C@H](Cc2ccc(O)cc2)NC(=O)[C@H](CCC(N)=O)NC1=O` [CP-03] (HELM PEPTIDE1{[O=C(C[*:3])[*:2]].[dY].S.A.W.G.N.R.Q.I.Q.Y.Y.C.[am]}$PEPTIDE1,PEPTIDE1,1:R3-14:R3$$$V2.0), the Kd (CD59; [1]) was 23.4 ± 0.7 nM.

With `CC(C)[C@@H]1NC(=O)[C@H](Cc2c[nH]cn2)NC(=O)[C@@H](Cc2ccc(O)cc2)NC(=O)CSC[C@@H](C(N)=O)NC(=O)CNC(=O)[C@H](CCCNC(=N)N)NC(=O)[C@H]([C@@H](C)O)NC(=O)[C@H](Cc2ccccc2)NC(=O)[C@H](CO)NC(=O)[C@H](CCCNC(=N)N)NC(=O)[C@H](CC(N)=O)NC(=O)CNC(=O)[C@H](Cc2ccccc2)NC1=O` [CP-04] (HELM PEPTIDE1{[O=C(C[*:3])[*:2]].[dY].H.V.F.G.N.R.S.F.T.R.G.C.[am]}$PEPTIDE1,PEPTIDE1,1:R3-14:R3$$$V2.0) the Kd (CD59; [1]) was 11.9 ± 0.3 nM.

`CC(C)[C@@H]1NC(=O)[C@H](CO)NC(=O)[C@H](CO)NC(=O)[C@H](CCCNC(=N)N)NC(=O)[C@H](CC(N)=O)NC(=O)[C@H](C)NC(=O)[C@H](Cc2c[nH]c3ccccc23)NC(=O)[C@H]([C@@H](C)O)NC(=O)[C@H](Cc2c[nH]c3ccccc23)NC(=O)[C@H](CO)NC(=O)[C@@H](Cc2ccc(O)cc2)NC(=O)CSC[C@@H](C(N)=O)NC(=O)CNC(=O)[C@H](CCCNC(=N)N)NC1=O` [CP-06-G6A] (HELM PEPTIDE1{[O=C(C[*:3])[*:2]].[dY].S.W.T.W.A.N.R.S.S.V.R.G.C.[am]}$PEPTIDE1,PEPTIDE1,1:R3-15:R3$$$V2.0) showed a Kd (CD59; [2]) of 235 nM.

Molecule `CC(C)[C@@H]1NC(=O)[C@H](CO)NC(=O)[C@H](CO)NC(=O)[C@H](CCCNC(=N)N)NC(=O)[C@H](CC(N)=O)NC(=O)CNC(=O)[C@H](Cc2c[nH]c3ccccc23)NC(=O)[C@H]([C@@H](C)O)NC(=O)[C@H](Cc2c[nH]c3ccccc23)NC(=O)[C@H](CO)NC(=O)[C@@H](Cc2ccc(O)cc2)NC(=O)CSC[C@@H](C(N)=O)NC(=O)[C@H](C)NC(=O)[C@H](CCCNC(=N)N)NC1=O` [CP-06-G13A] (HELM PEPTIDE1{[O=C(C[*:3])[*:2]].[dY].S.W.T.W.G.N.R.S.S.V.R.A.C.[am]}$PEPTIDE1,PEPTIDE1,1:R3-15:R3$$$V2.0) has a Kd (CD59; [2]) of 678 nM.

With `CC(C)[C@@H]1NC(=O)[C@H](CO)NC(=O)[C@H](CO)NC(=O)[C@H](CCCNC(=N)N)NC(=O)[C@H](CC(N)=O)NC(=O)CNC(=O)[C@H](Cc2c[nH]c3ccccc23)NC(=O)[C@H]([C@@H](C)O)NC(=O)[C@H](Cc2c[nH]c3ccccc23)NC(=O)[C@H](CO)NC(=O)[C@@H](Cc2ccc(O)cc2)NC(=O)CSC[C@@H](C(=O)NCC(=O)N[C@@H](CO)C(=O)NCC(=O)N[C@@H](CO)C(=O)NCC(=O)N[C@@H](CO)C(=O)N[C@@H](CCCCN)C(N)=O)NC(=O)CNC(=O)[C@H](CCCNC(=N)N)NC1=O` [CP-06-GSGSGSK] (HELM PEPTIDE1{[O=C(C[*:3])[*:2]].[dY].S.W.T.W.G.N.R.S.S.V.R.G.C.G.S.G.S.G.S.K.[am]}$PEPTIDE1,PEPTIDE1,1:R3-15:R3$$$V2.0) the Kd (CD59; SPR, Figure S2T, read-out: KD) was 18 nM.

Work on `CC(C)[C@@H]1NC(=O)[C@H](CO)NC(=O)[C@H](CO)NC(=O)[C@H](CCCNC(=N)N)NC(=O)[C@H](C)NC(=O)CNC(=O)[C@H](Cc2c[nH]c3ccccc23)NC(=O)[C@H]([C@@H](C)O)NC(=O)[C@H](Cc2c[nH]c3ccccc23)NC(=O)[C@H](CO)NC(=O)[C@@H](Cc2ccc(O)cc2)NC(=O)CSC[C@@H](C(N)=O)NC(=O)CNC(=O)[C@H](CCCNC(=N)N)NC1=O` [CP-06-N7A] (HELM PEPTIDE1{[O=C(C[*:3])[*:2]].[dY].S.W.T.W.G.A.R.S.S.V.R.G.C.[am]}$PEPTIDE1,PEPTIDE1,1:R3-15:R3$$$V2.0) yielded a Kd (CD59; [2]) of 209 nM.

Work on `CC(C)[C@@H]1NC(=O)[C@H](CO)NC(=O)[C@H](CO)NC(=O)[C@H](C)NC(=O)[C@H](CC(N)=O)NC(=O)CNC(=O)[C@H](Cc2c[nH]c3ccccc23)NC(=O)[C@H]([C@@H](C)O)NC(=O)[C@H](Cc2c[nH]c3ccccc23)NC(=O)[C@H](CO)NC(=O)[C@@H](Cc2ccc(O)cc2)NC(=O)CSC[C@@H](C(N)=O)NC(=O)CNC(=O)[C@H](CCCNC(=N)N)NC1=O` [CP-06-R8A] (HELM PEPTIDE1{[O=C(C[*:3])[*:2]].[dY].S.W.T.W.G.N.A.S.S.V.R.G.C.[am]}$PEPTIDE1,PEPTIDE1,1:R3-15:R3$$$V2.0) yielded a Kd (CD59; [2]) of 18 nM.

Molecule `CC(C)[C@@H]1NC(=O)[C@H](CO)NC(=O)[C@H](CO)NC(=O)[C@H](CCCNC(=N)N)NC(=O)[C@H](CC(N)=O)NC(=O)CNC(=O)[C@H](Cc2c[nH]c3ccccc23)NC(=O)[C@H]([C@@H](C)O)NC(=O)[C@H](Cc2c[nH]c3ccccc23)NC(=O)[C@H](CO)NC(=O)[C@@H](Cc2ccc(O)cc2)NC(=O)CSC[C@@H](C(N)=O)NC(=O)CNC(=O)[C@H](C)NC1=O` [CP-06-R12A] (HELM PEPTIDE1{[O=C(C[*:3])[*:2]].[dY].S.W.T.W.G.N.R.S.S.V.A.G.C.[am]}$PEPTIDE1,PEPTIDE1,1:R3-15:R3$$$V2.0) has a Kd (CD59; [2]) of 97 nM.

Molecule `CC(C)[C@@H]1NC(=O)[C@H](CO)NC(=O)[C@H](CO)NC(=O)[C@H](CCCNC(=N)N)NC(=O)[C@H](CC(N)=O)NC(=O)CNC(=O)[C@H](Cc2c[nH]c3ccccc23)NC(=O)[C@H]([C@@H](C)O)NC(=O)[C@H](Cc2c[nH]c3ccccc23)NC(=O)[C@H](C)NC(=O)[C@@H](Cc2ccc(O)cc2)NC(=O)CSC[C@@H](C(N)=O)NC(=O)CNC(=O)[C@H](CCCNC(=N)N)NC1=O` [CP-06-S2A] (HELM PEPTIDE1{[O=C(C[*:3])[*:2]].[dY].A.W.T.W.G.N.R.S.S.V.R.G.C.[am]}$PEPTIDE1,PEPTIDE1,1:R3-15:R3$$$V2.0) has a Kd (CD59; [2]) of 13 nM.

In the case of `CC(C)[C@@H]1NC(=O)[C@H](CO)NC(=O)[C@H](C)NC(=O)[C@H](CCCNC(=N)N)NC(=O)[C@H](CC(N)=O)NC(=O)CNC(=O)[C@H](Cc2c[nH]c3ccccc23)NC(=O)[C@H]([C@@H](C)O)NC(=O)[C@H](Cc2c[nH]c3ccccc23)NC(=O)[C@H](CO)NC(=O)[C@@H](Cc2ccc(O)cc2)NC(=O)CSC[C@@H](C(N)=O)NC(=O)CNC(=O)[C@H](CCCNC(=N)N)NC1=O` [CP-06-S9A] (HELM PEPTIDE1{[O=C(C[*:3])[*:2]].[dY].S.W.T.W.G.N.R.A.S.V.R.G.C.[am]}$PEPTIDE1,PEPTIDE1,1:R3-15:R3$$$V2.0), the Kd (CD59; [2]) is reported as 22 nM.

YVYGSRDRC was tested, and the “Counts (raw counts for peptide sequence), Seq I” value (biotinylated CD59; NGS sample Seq I, sheet R6 (6th selection round)) was 74, the “Counts (raw counts for peptide sequence), Seq II” value (biotinylated CD59; NGS sample Seq II, sheet R6 (6th selection round)) was 5 and the “Percentage of the pool, averaged across the two sequencing samples” value (biotinylated CD59; average of Seq I and Seq II, sheet R6) was 0.014%. For the same molecule, the “Percentage of the pool, Seq I” value (biotinylated CD59; counts normalised by total counts of NGS sample Seq I, sheet R6) was 0.017% and the “Percentage of the pool, Seq II” value (biotinylated CD59; counts normalised by total counts of NGS sample Seq II, sheet R6) was 0.012%.

YVYGSRDRCWG was tested, and the “Percentage Seq I” value (biotinylated CD59; counts normalised by total counts of sample Seq I, percentage of the pool, sheet R6) was 0.445%, the “Percentage Seq II” value (biotinylated CD59; counts normalised by total counts of sample Seq II, percentage of the pool, sheet R6) was 0.441% and the “Percentage Average” value (biotinylated CD59; percentage of the pool averaged across the two sequencing samples, sheet R6) was 0.443%. For the same molecule, the “Counts Seq I” value (biotinylated CD59; raw NGS counts of peptide sequence, sequencing sample Seq I, sheet R6 (6th selection round)) was 1946 and the “Counts Seq II” value (biotinylated CD59; raw NGS counts of peptide sequence, sequencing sample Seq II, sheet R6 (6th selection round)) was 190.
